{"source": "patent US20260308535A1", "about": "“ANTI-CANCER TREATMENTS AND METHODS OF USE THEREOF” (Memorial Sloan-Kettering Cancer Center, priority 2023, published 2026)", "molecules": {"B1": {"name": "IDH2 R140Q (RQ) homodimers (Homo sapiens; R140Q) (protein)", "chain": "ADKRIKVAKPVVEMDGDEMTRIIWQFIKEKLILPHVDIQLKYFDLGLPNRDQTDDQVTIDSALATQKYSVAVKCATITPDEARVEEFKLKKMWKSPNGTIQNILGGTVFREPIICKNIPRLVPGWTKPITIGRHAHGDQYKATDFVADRAGTFKMVFTPKDGSGVKEWEVYNFPAGGVGMGMYNTDESISGFAHSCFQYAIQKKWPLYMSTKNTILKAYDGRFKDIFQEIFDKHYKTDFDKNKIWYEHRLIDDMVAQVLKSSGGFVWACKNYDGDVQSDILAQGFGSLGLMTSVLVCPDGKTIEAEAAHGTVTRHYREHQKGRPTSTNPIASIFAWTRGLEHRGKLDGNQDLIRFAQMLEKVCVETVESGAMTKDLAGCIHGLSNVKLNEHFLNTTDFLDTIKSNLDRALGRQ"}}, "key": {"IDH2 R140Q [1]": {"target": "T1, IDH2 R140Q (Homo sapiens, UniProt P48735, R140Q)", "T1 sequence (P48735 40-452 R140Q)": "B1 chain", "details": "10 μM compound; NADH 0.5 mM; αKG 10 mM; enzyme 7.5 μg/ml; 37° C.", "experimental": "Briefly, enzyme reactions were set up in 384-well plate format with purified enzyme (7.5 μg/ml), NADH (0.5 mM), αKG (10 mM; added last to start reaction), and HEPES buffer. Compounds were screened using a concentration of 10 μM in DMSO. No enzyme groups were used for each condition as negative controls. […] Reactions were incubated at 37° C., and absorbance at 340 nm was monitored using an EnVision plate reader at 30-minute intervals. Results were analyzed using KNIME. Briefly, concatenated spreadsheets containing absorbance metadata (well number, plate information, absorbance read outs etc.) were merged. For baseline correction, the “no enzyme with drug” values (N1: no enzyme negative control with drug) for each condition were subtracted from the “plus enzyme with drug” values (S: enzyme with drug) for each condition. Then the baseline corrected enzyme values (S−N1) were normalized to the “no enzyme control” values (N2: no enzyme control with DMSO) to calculate robust (median based) percent of “no enzyme control” (POC) and Z-scores. […] To confirm hits, enzyme assays were carried out in the same as screening but in a 96-well plate format with 10 μM of each hit, and purified enzyme (7.5 μg/ml), NADH (0.5 mM), and αKG (10 mM). Absorbance was read at 340 nm every 15 sec for 3 hr."}, "IDH2 R172X": {"test_system": "IDH2 R172X", "experiment": "Effect of EDBN on IDH2 R172X mutations", "type": "biochemical", "details": "FIG. 50"}, "IDH2 R140Q [2]": {"target": "T1, IDH2 R140Q", "experiment": "NADH-dependent reduction of αKG to 2HG, RQ", "details": "role: cofactor; RQ homodimers; NADH 0.25 mM; αKG 5.0 mM"}, "IDH2 R140Q [3]": {"test_system": "IDH2 R140Q", "details": "cited from earlier work"}, "[4]": {"test_system": "Ba/F3 leukemia cells with IDH2 allelic configurations", "type": "cell-based, mouse", "experimental": "Panel A Schematic depicting IDH2 dimers retrovirally transduced into Ba/F3 cells. ‘Pre’received IDH2 WT-mCherry plus IDH2 RQ-YFP; ‘Trans’ received IDH2 RQ-YFP plus IDH2 IM-GFP; ‘Cis’ received IDH2 WT-mCherry plus IDH2 RQ/IM-GFP. […] Panel C Competitive growth of ‘Pre’, ‘Trans’, and ‘Cis’ cells mixed at a 1:1:1 ratio and cultured with vehicle (DMSO) or the mutant IDH2 inhibitor enasidenib (100 nM). Changes in the percentage of ‘Pre’, ‘Trans’, and ‘Cis’ cells were assessed weekly by flow cytometry (n=3). […] Results throughout figure are representative of >3 independent experiments. Data are mean±SEM unless otherwise specified. **P<0.01, ***P<0.001, ****P<0.0001.\nCells harboring these distinct allelic configurations were marked with different combinations of fluorescent proteins (FIG. 1 panel B)."}, "[5]": {"substrate": "O=C(O)CCC(=O)C(=O)O", "experiment": "NADPH-dependent 2HG production, Michaelis-Menten kinetics, active-site RQ homodimers", "type": "biochemical, human", "details": "other: role: substrate, cofactor NADPH 0.33 mM, enzyme 7.5 μg/ml, 37.0 °C"}}}
{"molecule": "CC(=O)O[C@@H]1C[C@H]2C(C)(C)C(=O)C=C[C@]2(C)[C@H]2CC[C@]3(C)C(=CC(=O)O[C@H]3c3ccoc3)[C@@]21C", "note": "[Deoxygedunin]", "values": [{"measurement": "Z-Score, Screen #1", "setting": "IDH2 R140Q [1]", "result": 7.959}, {"measurement": "Z-Score, Screen #2", "setting": "IDH2 R140Q [1]", "result": 7.554}]}
{"molecule": "CC(=O)O[C@@H]1C[C@H]2C(C)(C)C(=O)CC[C@]2(C)[C@H]2CC[C@@]3(C)[C@H](c4ccoc4)OC(=O)[C@H]4O[C@]43[C@@]21C", "note": "[Dihydrogedunin]", "values": [{"measurement": "Z-Score, Screen #1", "setting": "IDH2 R140Q [1]", "result": 9.578}, {"measurement": "Z-Score, Screen #2", "setting": "IDH2 R140Q [1]", "result": 4.452}]}
{"molecule": "CCc1ccc2[nH]c3nc(C)cc(C)c3c(=O)c2c1", "note": "[EDBN, 7-ethyl-2,4-dimethylbenzo[b][1,8]naphthyridin-5(10H)-one]", "values": [{"measurement": "activity on IDH2 R172X mutations", "setting": "IDH2 R172X", "result": "also works on IDH2 R172X mutations"}]}
{"molecule": "O=c1c(O)c(-c2ccc(O)c(O)c2)oc2c(O)c(O)cc(O)c12", "note": "[Gossypetin]", "values": [{"measurement": "Z-Score, Screen #1", "setting": "IDH2 R140Q [1]", "result": 9.982}, {"measurement": "Z-Score, Screen #2", "setting": "IDH2 R140Q [1]", "result": 13.35}]}
{"molecule": "COC1=C(OC)C(=O)C(CCCCCCCCCCO)=C(C)C1=O", "note": "[Idebenone]", "values": [{"measurement": "Z-Score, Screen #1", "setting": "IDH2 R140Q [1]", "result": 11.33}, {"measurement": "Z-Score, Screen #2", "setting": "IDH2 R140Q [1]", "result": 8.499}]}
{"molecule": "NC(=O)C1=CN([C@@H]2O[C@H](COP(=O)(O)OP(=O)(O)OC[C@H]3O[C@@H](n4cnc5c(N)ncnc54)[C@H](O)[C@@H]3O)[C@@H](O)[C@H]2O)C=CC1", "note": "[NADH, nicotinamide adenine dinucleotide]", "values": [{"measurement": "use of NADH to reduce αKG", "setting": "IDH2 R140Q [2]", "result": "no ability to use NADH to reduce αKG"}]}
{"molecule": "CC(C)(O)CNc1nc(Nc2ccnc(C(F)(F)F)c2)nc(-c2cccc(C(F)(F)F)n2)n1", "note": "[enasidenib]", "values": [{"measurement": "effect of allosteric binding on active site conformation", "setting": "IDH2 R140Q [3]", "result": "can stabilize inhibitory open conformation"}, {"measurement": "competitive growth of 'Cis' cells", "setting": "[4]", "result": "selective growth disadvantage"}, {"measurement": "competitive growth of 'Trans' cells", "setting": "[4]", "result": "selectively grew out in the presence of enasidenib"}]}
{"molecule": "B1", "values": [{"measurement": "Km", "setting": "[5]", "result": 1740, "unit": "µM"}, {"measurement": "Vmax", "setting": "[5]", "result": 6.95, "unit": "µM/min"}, {"measurement": "kcat/Km", "setting": "[5]", "result": "2.14e+06", "unit": "M⁻¹ s⁻¹"}]}
